Data on one molecule can be found in patent publication US12583868B2, “JAK inhibitors and methods for synthesizing and using thereof” (GALDERMA HOLDING SA, priority 2020, dated 2026).

The term IC50 denotes the concentration that gives 50% inhibition. In general, Vd refers to a proportionality between amount in the body and measured concentration, not a real space. By chromatographic logD is commonly meant a lipophilicity value derived from retention on a column. High values mean a more lipophilic compound, low ones a more hydrophilic compound.

Entries after “also recorded” stand apart in the source; their conditions may differ.

Series [1] can be described thus: In vivo pharmacokinetic analysis in minipig (iv). Also noted: species or system male Göttingen minipigs. Conditions: iv 1 mg/kg. The method, then: Three male Göttingen minipigs. Compound was administered intravenously to fed animals at a target dose of 1 mg/kg, dose volume 1 mL/kg, in DMSO: hydroxypropyl-p-cyclodextrin 20% in phosphate buffer 60 mM pH 7 (5:95). Blood samples were collected at various time points. Blood samples were then assayed using a method based upon protein precipitation with acetonitrile followed by LC/MS/MS analysis. Non-compartmental methods were used for pharmacokinetic analysis of blood concentration versus time data.

Series [2] is described as follows: Protein binding analysis (RED), mouse plasma. The format is in vitro ADME, male balb-c mice. Conditions: 5 μM. Here is the method: The protein binding was assessed in plasma of Human, male balb-c mice, male Wistar Han rat, male Göttingen minipig by rapid equilibrium dialysis (RED) devices. After the plasma and buffer phosphate 50 mM pH7.4 were equilibrated at 37° C., the compound was added to plasma to reach a final concentration of 5 μM. An aliquot of plasma was withdrawn immediately. Equilibration under mild agitation was continued for 4 h. The plasma and buffer were sampled and samples were quenched with 4 volumes of acetonitrile and centrifuged. Supernatant was quantified in HPLC/MS/MS to calculate the recovery and the percentage of compound dissolved in the buffer (unbound) and bound to plasma proteins.

Series [3] in a line: Intrinsic clearance in hepatocytes, rat. The series is classed as in vitro ADME, male Wistar Han rats. Conditions: 2.5 μM. The method, then: (§1) The intrinsic clearance was assessed in cryopreserved Hepatocytes obtained by Human livers donors of mix gender pooled together, male balb-c mouse, male Wistar Han rats and male Göttingen minipig, by looking at the parent compound disappearance. The incubations were performed using a final concentration of viable cells of 1 million/ml (viability above 70%) and test item of 2.5 μM. Incubations were followed up to 2 h. Aliquotes were withdrawn at different time points and reaction quenched with acetonitrile. After centrifugation the supernatant was analyzed by HPLC/MS to quantify the remaining amount of parent in comparison with time 0. The clearance was calculated by fitting the log of the percentage remaining with Graphpad Prism ver.7.

The nature of series [4]: Intrinsic clearance in hepatocytes, minipig. The series is classed as in vitro ADME, male Göttingen minipig. Conditions: 2.5 μM. The method, then:
as §1

Another series has as its target T1, CYP2D6 (Homo sapiens, UniProt P10635).
T1 construct: Human pooled liver microsomes of mixed gender (mainly Caucasian); from tissue; host or cells: pooled human liver microsomes
Kind of series: CYP2D6 inhibition in human liver microsomes. The format is in vitro ADME. Conditions: dextromethorphan, CRL data. Here is the method: After 5 min at 37° C. incubations were started with NADPH and prolonged for 10 min. The test compound was tested up to 30 μM keeping the final concentration of organic solvent was below 0.5%. The final concentration of microsomes was 0.1 mg/ml to ensure linearity during the time of the incubation. The reaction was quenched by adding 3 volume of acetonitrile. After centrifugation the supernatant was analyzed by HPLC/MS/MS for the formation of des-methyldextromethorphane selectively produced by CYP2D6 and 1′hydroxymidazolam or 6p-hydroxytestosterone, selectively produced by CYP3A. IC50 was calculated with Graphpad Prism v.7 comparing the amount of metabolite produced in presence of the test compound with that produced in absence of test item.
(In general: Liver microsomes are a subcellular fraction often used to study metabolism.)

For the next series, the system named is IL6. Kind of series: hWB assay, IL6. The series is classed as cell-based, h.
The next series is described as follows: iv PK mice. Conditions: female, mouse, in vivo. An excerpt:
Other studies including, but not limited to, CaCO2 permeability, metabolite profiling in human microsomes (Syneos 7007703.SA.186) and in human hepatocytes (Syneos 7007703.SA.185), metabolite M3b structural elucidation (Syneos 7007703.SA.186), mouse iv female (ODS CFH-1798), mouse iv+ABT females (ODS CFH 1799), mouse topical d1,d10 (ODS Study Number: NBK39-32, 12 Sep. 2019, ELN Bioanalysis study: NBK156-79), rat iv (Pharmaron PH-DMPK-GAL-20-002), dog topical d1, d10 (CRL FY19.085) and minipig topical PK dl, d7 (Pharmaron 92404-19-914) are also conducted using the standard protocols known in the art.

The nature of another series: Chrom logD pH 7.4. The series is classed as physicochemical.
The subject of a further series is kinase panel (403). Kind of series: Kinase selectivity S35 / S1 at 10 μM. The series is classed as binding.
In series [5] the test system is Salmonella typhimurium TA98 and TA100. Kind of series: Mini Ames assay (TA98 and TA100). The series is classed as cell-based. Conditions: TA98 & TA100, with and without metabolic activation (S9). An excerpt: The Ames test in micro-method (in 6-well plates=mini Ames) follows the general principles of the standard Ames's technique. The Ames test used strains of bacteria Salmonella typhimurium that carry mutations in the genes involved in histidine synthesis. These strains are auxotrophic mutants, they require histidine for growth but cannot produce it. The assay was used to observe the ability of the test item to induce reverse mutations allowing the bacteria to grow in a histidine-free medium. The number of bacteria that revert and acquire the wild-type ability to grow in the absence of histidine can be estimated by counting the colonies that develop upon incubation. The use of different strains allows the identification of different mechanisms of gene mutation (TA98 for detection of frameshift mutations and TA100 for detection of base pair substitutions). […]
A toxicity assessment was performed on complete nutriment agar plate (with histidine) to define the highest concentration to be used in the genotoxicity assay. […] The first concentration analyzed in the well (6-well plate) was 500 μg per plate followed by 7 serial dilutions (2 times factor of dilution). […] The viability of the positive and negative controls was analyzed for each strain, in the presence or absence of metabolic activation system, and were compared with historical data to validate the study. […]
(The Ames test uses bacterial strains that need an amino acid and regain growth without it when mutated back.)

T1 sequence (P10635 whole entry): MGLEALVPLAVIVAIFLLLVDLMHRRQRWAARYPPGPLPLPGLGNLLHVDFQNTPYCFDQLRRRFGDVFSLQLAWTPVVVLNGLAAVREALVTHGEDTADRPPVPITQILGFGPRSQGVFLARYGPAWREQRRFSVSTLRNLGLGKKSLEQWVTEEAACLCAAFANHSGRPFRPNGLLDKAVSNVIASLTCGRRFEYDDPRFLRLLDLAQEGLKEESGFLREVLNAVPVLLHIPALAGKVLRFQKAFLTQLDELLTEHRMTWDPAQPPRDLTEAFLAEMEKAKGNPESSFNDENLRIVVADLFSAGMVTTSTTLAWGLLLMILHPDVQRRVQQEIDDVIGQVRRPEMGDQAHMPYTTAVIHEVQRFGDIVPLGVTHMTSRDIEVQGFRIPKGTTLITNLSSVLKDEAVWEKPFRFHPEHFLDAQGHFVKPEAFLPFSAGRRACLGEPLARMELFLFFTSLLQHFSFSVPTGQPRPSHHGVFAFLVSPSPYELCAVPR

Turning to `O=S(=O)(N[C@H]1C[C@@H](N2CCOc3cnc4[nH]ccc4c32)C1)C1CN(C2CC2)C1` [Compound E, 1-Cyclopropyl-N-((cis)-3-(2,3-dihydropyrrolo[3′,2′:5,6]pyrido[3,4-b][1,4]oxazin-1(7H)-yl)cyclobutyl)azetidine-3-sulfonamide], the “iv PK minipig: ER” value in series [1] is 171%. Besides, the clearance in series [1] (male, Göttingen, whole blood, read-out: iv PK minipig: Cl) was 48 mL/min/kg; in “iv PK mice” (read-out: iv PK mice: Cl), 140 mL/min/kg. Also, the mFU in series [2] turned out to be 28%. Also, the “Intr. Clear. rheps” value in [3] was determined as 40 microL/min/10 6 cells. Besides, the “Intr. Clear. minipig heps” value in [4] stood at 44 microL/min/10 6 cells. In addition, the figures for the IC50 against CYP2D6 and in the series with IL6 were 20 µM and 1.6 µM, respectively. The molecule further showed a volume of distribution (Vd) in the series “iv PK mice” of 2.6 L/kg. Further, the half-life in the series “iv PK mice” (read-out: iv PK mice: t½) was 26.4 min. Further, in “Chrom logD pH 7.4”, the chromatographic logD was found to be 0.8. For the same molecule, the “Selectivity (S1): number of kinases out of panel” value in the series on kinase panel (403) is on record as 1/403. The AMES entry in series [5] is given as “not considered to be mutagenic; also recorded: Neg/Neg”.
